In patent US20250271361A1, “SUPERCONTINUUM INTRINSIC FLUORESCENCE IMAGING” (The Board of Trustees of the University of Illinois, priority 2024, published 2025):

Tests used:
[1] = system: hamster kidney fibroblast cells BHK-21; assay: SCIFI/SOMI endpoint (snapshot) imaging assay of in vitro hamster kidney cells treated with a drug or imaging agent; assay type: cell-based, Syrian golden hamster
Experimental: Next, the interaction between in vitro hamster kidney cells with a drug or imaging agent were evaluated.
Power-dependent “imaging” experiments were conducted on the prepared solutions and coverslip across the six colors by an excitation that would be standardized for biological imaging. […] For the 6-color SOMI images (1024×1024 pixels) collected from a biological sample, the raw intensity image of each color was converted into a photon-count image (unit: photon/pulse) using the established (calibrated) relation for that color at the same photomultiplier gain. Then, some (2-72) discernable single cells or cell clusters were manually segmented in the 6-color photon-count images. Finally, the SOMI intensity profiles of segmented single cells (or cell clusters) averaged over the corresponding pixels were obtained after a background subtraction. Specifically, the background of the culture medium in the empty space among the segmented cells was subtracted for 2D cell culture samples while the background with blocked illumination was subtracted for all 3D (tissue) samples.
In contrast to reductionism-based imaging, the lack of FLIM capability for general fluorescence imaging presented another challenge that may have contributed to the low popularity of comparative systems biology-based imaging strategies. Due to the high dynamic range of SOMI in gentle biological imaging, comparative photon counting of FLIM with low dynamic range (<0.2 photon/pulse, typically) cannot be used. To recover this capability, time-resolved photon counts were determined using computational photon counting, which provides single-photon accuracy for signals with high dynamic range. The output of three analog output photomultipliers for 4PAF, 3PAF, and 2PAF was optionally amplified with a high-speed transimpedance amplifier (C5594, Hamamatsu), and digitized at 2 GS/s with a high-speed digitizer (ATS9373, AlazarTech). Digitized values were saved, and photon-counting and lifetime information was computed in post-processing using custom MATLAB scripts (Mathworks). FLIM for the 2PAF and 3PAF colors were validated using NADH, FAD, and other standard dyes. To calibrate computational photon counting for 4PAF, Trp solutions from 0 to 50 mM were examined and a single-photon peak threshold was determined based on the peak height histogram to ensure a linear relationship between intensity and concentration over this range. After computational photon counting, mean fluorescence lifetime and phasor components g and s were determined by phasor analysis. For single-cell quantification, all fluorescence decays within a segmented cell were summed together, and one mean fluorescence lifetime was estimated from the total decay, along with one g and one s value.
(§1) In the above experiments (e.g., in the procedures used to generate the images described above), the following materials and methods were provided or performed. Adherent Syrian golden hamster kidney fibroblast cells BHK-21 (clone 13, ATCC CCL-10) were cultured in phenol red-free Eagle's Minimum Essential Medium (EMEM) supplemented with 10% FBS, 1% penicillin-streptomycin-amphotericin B (PSA), and 2.5 mM L-Glutamine at 37° C. under 5% CO2, and atmospheric O2 conditions. Before imaging, 1 mL of trypsinized cells was resuspended in 1 mL of 1×TrypLE™ Select Enzyme cell dissociation reagent (TFS, Cat #12563029). The cells were plated on poly-D-lysine coated 35-mm diameter glass-bottom imaging dishes and maintained inside a humidified incubator with 5% CO2 and 21% O2 conditions at 37° C. The incubation time varied between 1-6 hours while the culture media might be supplemented with specific drugs or labeling agents at […] concentrations. The cells were imaged within 10 min of being taken out of the incubator.

[2] = system: live BHK-21 cells; assay: time-lapse kinetic imaging assay (single-cell pharmacokinetic SOMI) of hamster kidney cells after transient exposure; settings: for cellular uptake by endocytosis via THG-visible nanovesicles: comparative kinetic assays of two mitochondrial uncouplers
Experimental: as §1
Large area or 3D SOMI was enabled by a motorized sample stage. Without moving the stage, time-lapse imaging of dynamic phenomenon or frame-averaged imaging of static samples were conducted in a constant field-of-view. Single-cell pharmacokinetics imaging was performed in a time-lapse SOMI of 200-frame period at the center of a 35-mm diameter glass-bottom imaging culture dish with 2 mL culture media of live BHK-21 cells. During the imaging near the 50-frame timepoint, 0.1 mL of preprepared concentrated solution of a drug (BAM15/FCCP) or labeling agent (AP3) was injected in ˜1 s by a mounted pipette into the center of the dish, attaining an ending/equilibrium concentration of […]. The fluorescence from AP3 in a segmented empty space among the cells was used to detect the transient concentration profile of injected drugs and labeling agents during the time-lapse imaging.

[3] = system: live BHK-21 cells; settings: statement of general knowledge, explained by the kinetic assay; cited from earlier work
[4] = apoptotic hamster kidney cells, endpoint assay

| Structure (SMILES) | LFI versus treatment-free control [1, 4] | ORR (optical redox ratio) versus treatment-free control [1, 4] | LFR (LOP-to-FAD ratio) ([1]; in vitro STS-induced apoptosis confirmed by single-cell morphological change) | apoptosis via modified cell morphology ([1]; in vitro hamster kidney cells, endpoint assay, different fields) | 3PIF (NADH) in 6-color profile ([1]; in vitro hamster kidney cells, label-free biomarker of apoptosis) | color through which cells respond ([2]; transient exposure, kinetic assay) [PIF/NADH but not THG] | LFI (lipofuscin fluorescence independence extent) ([1]; in vitro hamster kidney cells, endpoint assay, control 32%) [%] | cytotoxicity sensed in real-time by 4PIF ([2]; at a high concentration, transient exposure) | rise in FAD* coinciding with sudden decrease in ETC ([2]; both BAM15 concentrations, kinetic assay) [fold] | induced FAD* in cytoplasm, BAM15 compared with FCCP ([2]; comparative kinetic assays) | cellular uptake by endocytosis via THG-visible nanovesicles [2] | toxicity in mitochondrial uncoupling, compared with FCCP [3] |
| --- | --- | --- | --- | --- | --- | --- | --- | --- | --- | --- | --- | --- |
| CN[C@@H]1C[C@H]2O[C@@](C)([C@@H]1OC)n1c3ccccc3c3c4c(c5c6ccccc6n2c5c31)C(=O)NC4 [STS, staurosporine] | retained a low LFI | reduced ORR | increase in LFR | induced apoptosis | peaked | 3 |  |  |  |  |  |  |
| Fc1ccccc1Nc1nc2nonc2nc1Nc1ccccc1F [BAM15] |  |  |  |  |  |  | 44 | confirmed | ~10 | surprisingly larger | might enable cellular uptake | less toxic than FCCP |
| N#CC(C#N)=NNc1ccc(OC(F)(F)F)cc1 [FCCP] |  |  |  |  |  |  |  |  |  |  | not |  |
